In patent US8653049B2, “Normuramyl glycopeptide compounds” (priority 2008, dated 2014):
“Also recorded” adds a separate entry of the source.

Key:
[1] = rabbits, liposomal preparations s.c. 100 nmol/kg, 3 rabbits per group; passes if below 1.1° C.
Protocol: The test was conducted in an authorised laboratory, ITEST plus s.r.o., Bilé Vchýnice 10, 533 13 Vápno u Prelouce, Czech Republic, according to guide-lines CL 2005.
Rabbits (New Zeeland albino, 4-6 kg, 3 animals per group) were used for testing.
Liposomal preparations of muramyl glycopeptide derivatives were administered s.c. (100 nmol/kg). Empty liposomes were used as negative control and the liposomal as well as the free form of muramyl dipeptide (MDP) (25 μg/kg, corresponding to 50.7 nmol/kg) served as positive control. Temperature was measured in 1, 2, 3, 4,6 and 24 hour intervals.
Empty liposomes were used as negative control; and liposomal as well as free muramyl dipeptide (MDP) (50.7 nmol/kg) served as positive control. B30-norAbu-MDP (MT01, structure on page 5) served as additional control. Temperature was measured in 1, 2, 3, 4, 6 and 24 h intervals. The preparation passed the test if the Sum of ΔTmax remained below 1.1° C. (3 rabbits per group)

[2] = tested on: tetanus toxoid (TaT) specific IgG antibodies; design: species or system BALB/c mice; conditions: mouse, in vivo, sc
[3] = tested on: NK sensitive K562 cell line; assay: NK cell cytotoxicity of human PBMC, 51Cr-release against K562; assay type: cell-based; conditions: for dose response of NK cell activity: range 0.1 μM-100 μM, FIG. 28
Protocol: Ex vivo effects of test compounds on NK cells were evaluated on human peripheral blood mononuclear cells (PBMC). The NK cell cytotoxicity of healthy donors in the presence or absence of test compounds was measured in standard 4 hrs ^51Cr-release assay against NK sensitive K562 cell line in effector (PBMC) to target (K562) ratio 16:1. Test compounds were added at a concentration of 10^−7 mol/ml.
Testing of compounds 23, 24, 32, 33, 40 and 41 for their capacity to induce cell-mediated cytotoxicity of human eripheral blood mononuclear cells (PBMCs) is shown in FIGS. 27 and 28. All donors were healthy. […] The cytotoxicity of untreated controls (30.5%) was renormalized to 100%.

[4] = tested on: myelin basic protein induced EAE; assay: Experimental allergic encephalomyelitis (EAE), Th1 adjuvant activity; assay type: in vivo, guinea pigs; conditions: for Th1 stimulation (EAE): guinea pigs sensitized with bovine MBP in IFA + compound, FIG. 31
[5] = tested on: GM-CFC progenitors in bone marrow; assay: GM-CFC recovery, test compounds after sub-lethal irradiation; assay type: in vivo, ICR/CD-1 mice; conditions: s.c. 100 nmol 24 h after 6 Gy, FIG. 36
Protocol: Institite of Cancer Research (ICR/CD-1) mice (female, age of 3 months, 3-4 per group) were stimulated by s.c. administration of test compounds (volume of 200 μl, 100 nmol per dose) 24 h before sublethal γ-irradiation (6 Gy, ^60Co γray source Chisostat, Chirana Ltd., Czech Republic, at a dose of 0.285 Gy/min.). Mice were sacrified at day 13 and recovery of GM-CFC in femour was assayed by counting of colonies (CFC) formed after cultivation in medium. Non-irradiated mice were used as control for normal GM-CFC count in femour. PBS and empty liposomes were used as controls for spontaneous recovery. Liposomal MDP was used as reference standard.
The following parameters of hemopoiesis were evaluated: • a) Blood leukocyte counts and bone marrow cellularity. Blood leukocytes (samples of blood drawn from an incision of the tail vein) and nucleated cell elements of the femoral bone marrow (femoral diaphyses flushed with saline) were estimated by means of Coulter Counter (Model ZN, Coulter Electronics). • b) Colony-forming cells in spleen. Endogenous spleen colony-forming units (E-CFUs) were measured on day 9 post the whole-body irradiation with 6.5 Gy (5 mice per group) according to Till and McCulloch. • c) GM-CFC progenitors in bone marrow. Femoral bone marrow cells were obtained from mice by flushing the femour with sterile IMDM medium. Harvested cells were calculated and diluted to 1.5×10^5 cells/ml and plated in triplicate in a semisolid environment created by plasma clot (Iscovess modification of Dulbecco's medium, 20% of fetal calf serum, 10% of colony-stimulating factor, 10% of citrate plasma, and CaCl2 1.5 mg/ml). The cultures were incubated for 7 days at 37° C. in 5% CO2. Colonies of at least 50 cells were scored at 40× magnification.
The method is exactly as described above except that the test compounds (volume of 200 μl, 100 nmol per dose) were administered 24 h after sublethal γ-irradiation (6 Gy).

[6] = tested on: Salmonella enteritidis; assay: Stimulation of innate immunity against Salmonella Enteritidis; conditions: for Day 6 Intest.: clear/infected/dead / Day 6 Liver: clear/infected/dead / Day 6 Lungs: clear/infected/dead / Day 6 Spleen: clear/infected/dead / Day 12 Intest.: clear/infected/dead / Day 12 Liver: clear/infected/dead / Day 12 Lungs: clear/infected/dead / Day 12 Spleen: clear/infected/dead: liposomal, 20 nmol per dose p.o. 72 and 24 h before infection (LD50), 5 mice
[7] = tested on: Friend leukemia virus (FLV); assay: Friend leukemia virus infection: survival, TER-119+ cells, spleen; conditions: for survival, late phase (days 55 and 59), long-term / survival, early phase (day 43): 10 μmol i.p., non-liposomal, FIG. 23; for survival, late phase (days 55 and 59), long-term: control 0%; for survival, early phase (day 43): saline control 82%; for clonal expansion of TER-119+ erythroleukaemia cells in spleen / spleen size (weight): day 16; for clonal expansion of TER-119+ erythroleukaemia cells in spleen: FIG. 24; for spleen size (weight): FIG. 25
[8] = tested on: r-hsp90 (Candida albicans hsp90) specific IgG antibodies; assay: Proteoliposome vaccine against C. albicans hsp90: antibody (humoral) response, ELISA; assay type: in vivo, BALB/c mice; conditions: Experiment 12.2; liposomal compound (5%) + Ni-HSP90, boost day 14; FIG. 13
Protocol: (§1) Proteoliposomes were prepared by coupling recombinant hsp90 antigen (r-hsp90, 6×HISTag) via a metal chelating lipid to liposomes containing muramyl glycopeptide derivatives as adjuvant component. BALB/c […] mice 4 to 5 weeks old (female 20±2 g, 5 animal per group) were immunized by the intradermal route either with 20 μg of free or liposomal r-hsp90 (volume of 60 μl) either with or without L18-norAbu-MDP and boosted 21 days later by the same composition of experimental vaccine. FCA was used as positive control r-hsp90. Liposomal vaccine composition 20 μg of rHSP90 antigen, 5% metallochelating lipid, 5% particular MT analogue, 90% phospolipids.
Blood samples were collected from the tail vein into heparinised capillary PCV tubes. After centrifugation, the upper part of the tube, containing […] blood serum, was cut off, thrown into […] diluting solution and thoroughly shaken. Thus, a basic dilution of 1:33 was obtained. The pre-diluted sera were kept at −20° C. Blood samples were collected before the first immunization, 2 weeks thereafter and subsequently at weekly intervals up to the 4th week after the second immunisation. Specific IgG antibodies in blood serum samples were determined by the standard indirect ELISA procedure. The data obtained were processed statistically using the non-parametric Mann-Whitney U-test.
Proteoliposomes with muramyl glycopeptide derivatives were prepared as described above, but the boost was carried out already after 14 days. The liposomal vaccine composition was as for Experiment Set 1: 20 μg of rHSP90 antigen, 5% metallochelating lipid, 5% particular MT analogue, 90% phospolipids.
Controls: Aluminum hydroxide (AlOH) and Freund complete adjuvans (FCA) were used as positive controls. PBS with empty liposomes was used as negative control (control). Humoral response was tested at day 14 after vaccination (post priming) and at day 20 after vaccination (post booster). Antibody titres were wer assayed by ELISA.

[9] = tested on: IFN-γ production in splenocytes stimulated by rHSP90; assay: Proteoliposome vaccine against C. albicans hsp90: cellular response (IFN-γ in splenocytes stimulated by rHSP90); assay type: in vivo, BALB/c mice; conditions: Experiment 12.3; liposomal compound (5%) + Ni-HSP90, day 20; FIG. 14
Protocol: as §1
Production of INF-γ was mesured by standard ELISPOT assay (R&D, USA). Immunised mice were sacrified 4 weeks after booster imunisation and splenocytes were isolated, and stimulated by r-hsp90 (50 μg/ml) and spots were counted.
Proteoliposomes with muramyl glycopeptide derivatives were prepared as described above. Experimental conditions were as for Experiment 12.2.
Cell mediated immune response against rHSP90 antigen formulated in liposomal experimental vaccine was tested at day 20 (6 days after booster). Mice were sacrificed, splenocytes were purified and production of IFN-γ in splenocytes stimulated by rHSP90 was assayed by flow cytometry.

[10] = Survival after lethal irradiation (10 Gy); assay type: in vivo, mice (strain ICR); conditions: 200 nmol s.c. 24 h before 10 Gy; FIG. 37
Protocol: Preparations (200 nmol of active substance) were applied to mice (strain ICR, female, 3 months of age, 10 mice per group) by s.c. route 24 h before irradiation (radiation dose of 10 Gy from a ^60Co gamma-ray source at a dose rate of 0.285 Gy/min). PBS and empty liposome served as negative controls, free and liposomal muramyl dipeptide (MDP) served as positive controls.

[11] = tested on: NK-sensitive YAC1 target cells; assay: NK cell-mediated cytotoxicity of spleen mononuclear cells, 51Cr-release against YAC1; conditions: FLV-inoculated mice, day 16, 18 h incubation with YAC1; FIG. 26

CCCCCCCCCCCCCCCCCC(=O)N[C@H]1[C@H](O[C@H]2[C@H](OCC(=O)N[C@@H](CC)C(=O)N[C@H](CCC(=O)O)C(N)=O)[C@@H](NC(C)=O)C(O)O[C@@H]2CO)O[C@H](CO)[C@@H](O)[C@@H]1O (stereo partly drawn) [Compound 23, N-[2-O-(2-deoxy-2-stearoylamino-β-D-glucopyranosyl-(1→4)-2-acetamido-2,3-dideoxy-α-D-glucopyranosid-3-yl)-glycoloyl]-L-α-aminobutanoyl-D-isoglutamine]
+ΔTmax (Sum of ΔTmax) [1]: 0.7 °C | anti-TaT antibody response [2]: did not show a significant antibody response | anti-TaT antibody response (adjuvant activity) [2]: Strong adjuvant activity | dose response of NK cell activity [3]: positive dose response | Positive animals (%) (incidence of EAE) ([4]; 50 μg myelin basic protein + 1 mg test compound in FIA, footpads, up to day 21, FCA positive control): 86% | Th1 stimulation (EAE) [4]: superior to MDP and GMDP as Th1 adjuvants | GM-CFC progenitor cells in bone marrow [5]: strongest effect | GM-CFC progenitor cells in bone marrow ([5]; listed as compound 23): strongest performers | Day 6 Intest.: clear/infected/dead [6]: 2/3/0 | Day 6 Liver: clear/infected/dead [6]: 0/5/0 | Day 6 Lungs: clear/infected/dead [6]: 1/4/0 | Day 6 Spleen: clear/infected/dead [6]: 0/5/0 | Day 12 Intest.: clear/infected/dead [6]: 1/2/2 | Day 12 Liver: clear/infected/dead [6]: 1/2/2 | Day 12 Lungs: clear/infected/dead [6]: 1/2/2 | Day 12 Spleen: clear/infected/dead [6]: 1/2/2 | survival, late phase (days 55 and 59), long-term [7]: clearly worse at day 55 | survival, early phase (day 43) [7]: survival not worse than control at day 43 | survival, early phase (day 43) ([7]; listed as compound 23): slightly better than saline control | % of survivors on day 45 ([7]; 52 infected mice, non-liposomal compound i.p. day −10 and −3, infected non-treated 23): 45% | clonal expansion of TER-119+ erythroleukaemia cells in spleen [7]: positive effect on clonal expansion | spleen size (weight) [7]: increased spleen size

CCCCCCCCCCCCCCC(CCCCCCCCCCCCCC)C(=O)N[C@H]1[C@H](O[C@H]2[C@H](OCC(=O)N[C@@H](CC)C(=O)N[C@H](CCC(=O)O)C(N)=O)[C@@H](NC(C)=O)C(O)O[C@@H]2CO)O[C@H](CO)[C@@H](O)[C@@H]1O (stereo partly drawn) [Compound 24, N-{2-O-[2-deoxy-2-(2-tetradecyl-hexadecanoylamino)-β-D-gluco-pyranosyl-(1→4)-2-acetamido-2,3-dideoxy-α-D-glucopyranosid-3-yl]glycoloyl}-L-α-aminobutanoyl-D-isoglutamine]
+ΔTmax (Sum of ΔTmax) [1]: 0.7 °C | antibody response to r-hsp90 proteoliposomes [8]: weak to non-existent antibody responses; also recorded: virtually no Th2-type response | cell-mediated response to r-hsp90 proteoliposomes [9]: strong Th1-type responses | lag time to reach full NK stimulating activity ([3]; no vs 18 h pre-incubation): most pronounced | dose response of NK cell activity [3]: negative dose response | Th1 stimulation (EAE) [4]: strongest effect on Th1 stimulation | survival of lethally irradiated mice [10]: smaller survival benefit | protective effect / survival rate in S. Enteritidis infection ([6]; 0 or 1 case of death by day 12): good protective effects | Day 6 Intest.: clear/infected/dead [6]: 4/1/0 | Day 6 Liver: clear/infected/dead [6]: 3/2/0 | Day 6 Lungs: clear/infected/dead [6]: 4/1/0 | Day 6 Spleen: clear/infected/dead [6]: 3/2/0 | Day 12 Intest.: clear/infected/dead [6]: 3/1/1 | Day 12 Liver: clear/infected/dead [6]: 3/1/1 | Day 12 Lungs: clear/infected/dead [6]: 4/0/1 | Day 12 Spleen: clear/infected/dead [6]: 3/1/1 | survival, late phase (days 55 and 59), long-term ([7]; listed as substance 24): 30% | survival, early phase (day 43) [7]: survival rate worse than control | clonal expansion of TER-119+ erythroleukaemia cells in spleen [7]: pronounced opposite effect | spleen size (weight) [7]: spleen size slightly lower than the control | NK cell activity (cell-mediated cytotoxicity of SMCs) [11]: inhibitory effect
